According to patent publication US8796460B2, “Compounds for inhibiting KSP kinesin activity” (Mercky Sharp & Dohme Corp., priority 2007, dated 2014):

System: HCT116 colon cancer cells
Assay: KSP Cellular Assay (percent of cells staining positive for Phos-Histone H3 / Phos-MPM2)
Assay type: cell-based
Conditions: Homo sapiens, HCT-116, 16 h, Table 101; HCT116 cells, 16 hours with drug; read-out: ED50 (nM) Range
Method in brief: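 HCT116 cells treated with compound for 16 hours, fixed and stained with Hoechst plus Phos-Histone H3 (ser10) and Phos-MPM2 antibodies. Percent positive cells from immunofluorescence imaging; EC50 by sigmoidal nonlinear regression over 8-point dilutions in duplicate.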

First: CC(=O)N1CCC2(SC(c3cc(F)ccc3F)=NN2C(C)=O)c2ccccc21 (stereo not shown) [compound 112]
Second: CC(=O)N1N=C(c2cc(F)ccc2F)SC12CCNc1ccccc12 (stereo not shown) [compound 110]
The EC50 of the first is higher: > 1000 nM for the first, ≤ 500 nM for the second. The second is the more potent here.

`CC(=O)N1CCC2(CC1)CC1(SC(c3cc(F)ccc3F)=NN1C(C)=O)c1ccccc1O2` (stereo not shown) [compound 126] and `CC(=O)N1N=C(c2cc(F)ccc2F)SC12CC1(CCNCC1)Oc1ccccc12` (stereo not shown) [compound 125] cannot be ordered by EC50: > 1000 nM for the first, > 1000 nM for the second.

`CC(=O)N1N=C(c2cc(F)ccc2F)SC12CCCc1sccc12` (stereo not shown) [compound 103] and `CC(=O)N1N=C(c2cc(F)ccc2F)SC12CCCc1ncccc12` (stereo not shown) [compound 123] cannot be ordered by EC50: > 1000 nM for the first, > 1000 nM for the second.

`CC(=O)N1N=C(c2cc(F)ccc2F)SC12CCCCc1ccccc12` (stereo not shown) [compound 122] was tested, and the EC50 was > 1000 nM.

Same assay, conditions: Homo sapiens, HCT-116, 16 h, Table 401; HCT116 cells, 16 hours with drug; read-out: ED50 (nM) Range

`C[C@H](O)C(=O)N1N=C(c2cc(F)ccc2F)SC12CCc1ccccc12` (stereo partly shown) [compound 436] and `COC(C)C(=O)N1N=C(c2cc(F)ccc2F)SC12CCc1ccccc12` (stereo not shown) [compound 441] cannot be ordered by EC50: ≤ 500 nM for the first, ≤ 500 nM for the second.

`CC(N)CCC(=O)N1N=C(c2cc(F)ccc2F)SC12CCc1ccccc12` (stereo not shown) [compound 452] and `NCCC(=O)N1N=C(c2cc(F)ccc2F)SC12CCc1ccccc12` (stereo not shown) [compound 442] cannot be ordered by EC50: ≤ 500 nM for the first, ≤ 500 nM for the second.

`O=C(C1CC1)N1N=C(c2cc(F)ccc2F)SC12CCOc1ccccc12` (stereo not shown) [compound 464] and `N[C@@H]1CC[C@@H](C(=O)N2N=C(c3cc(F)ccc3F)SC23CCOc2ccccc23)C1` (stereo partly shown) [compound 478] cannot be ordered by EC50: 500 to 1000 nM for the first, > 500 nM for the second.

`NC1CCC(C(=O)N2N=C(c3cc(F)ccc3F)SC23CCc2ccccc23)CC1` (stereo not shown) [compound 439] and `N[C@H]1C[C@@H](C(=O)N2N=C(c3cc(F)ccc3F)SC23CCc2ccccc23)C1` (stereo partly shown) [compound 501] cannot be ordered by EC50: 500 to 1000 nM for the first, ≤ 500 nM for the second.

`O=C(C1CCCN1)N1N=C(c2cc(F)ccc2F)SC12CCCc1ccccc12` (stereo not shown) [compound 410] and `O=C([C@@H]1CCCN1)N1N=C(c2cc(F)ccc2F)SC12CCc1ccccc12` (stereo partly shown) [compound 423] cannot be ordered by EC50: > 1000 nM for the first, > 1000 nM for the second.

`O=C(c1cccnc1)N1N=C(c2cc(F)ccc2F)SC12CCOc1ccccc12` (stereo not shown) [compound 431] and `O=C(c1ccccn1)N1N=C(c2cc(F)ccc2F)SC12CCOc1ccccc12` (stereo not shown) [compound 432] cannot be ordered by EC50: > 1000 nM for the first, > 1000 nM for the second.

`NCCCC(=O)N1N=C(c2cc(F)ccc2F)S[C@@]12CCOc1ccccc12` [compound 459] and `NCCCC(=O)N1N=C(c2cc(F)ccc2F)S[C@]12CCOc1ccccc12` [compound 458] cannot be ordered by EC50: > 500 nM for the first, ≤ 500 nM for the second.

`O=C([C@@H]1CCCN1)N1N=C(c2cc(F)ccc2F)SC12CCCc1sccc12` (stereo partly shown) [compound 411] and `O=C([C@@H]1CCCCN1)N1N=C(c2cc(F)ccc2F)SC12CCCc1ccsc12` (stereo partly shown) [compound 425] cannot be ordered by EC50: > 1000 nM for the first, > 1000 nM for the second.

`O=C([C@@H]1CCCN1)N1N=C(c2cc(F)ccc2F)SC12CCSc1ccccc12` (stereo partly shown) [compound 413] and `O=C(C1CCCNC1)N1N=C(c2cc(F)ccc2F)SC12CCSc1ccccc12` (stereo not shown) [compound 405] cannot be ordered by EC50: > 1000 nM for the first, > 1000 nM for the second.

First: NCC(=O)N1N=C(c2cc(F)ccc2F)SC12CCOc1ccccc12 (stereo not shown) [compound 469]
Second: O=C(CO)N1N=C(c2cc(F)ccc2F)SC12CCOc1ccccc12 (stereo not shown) [compound 473]
The EC50 of the first is higher: > 1000 nM for the first, 500 to 1000 nM for the second.

Compared with `COCC(=O)N1N=C(c2cc(F)ccc2F)SC12CCOc1ccccc12` (stereo not shown) [compound 466], `CN(C)CCCC(=O)N1N=C(c2cc(F)ccc2F)SC12CCOc1ccccc12` (stereo not shown) [compound 475] is lower in EC50: > 1000 nM for the first, ≤ 500 nM for the second.

`O=C(CCCN1CCOCC1)N1N=C(c2cc(F)ccc2F)SC12CCc1ccccc12` (stereo not shown) [compound 457] and `NC(=O)CCC(=O)N1N=C(c2cc(F)ccc2F)SC12CCc1ccccc12` (stereo not shown) [compound 444] cannot be ordered by EC50: ≤ 500 nM for the first, ≤ 500 nM for the second.

`O=C(CC1CCNC1)N1N=C(c2cc(F)ccc2F)SC12CCc1ccccc12` (stereo not shown) [compound 451] and `O=C(CC1CCNC1)N1N=C(c2cc(F)ccc2F)SC12CCOc1ccccc12` (stereo not shown) [compound 496] cannot be ordered by EC50: ≤ 500 nM for the first, ≤ 500 nM for the second.

Compared with `O=C(C1CCNCC1)N1N=C(c2cc(F)ccc2F)SC12CCCc1ccccc12` (stereo not shown) [compound 401], `N[C@H]1C[C@H](C(=O)N2N=C(c3cc(F)ccc3F)SC23CCc2ccccc23)C1` (stereo partly shown) [compound 502] is lower in EC50: > 1000 nM for the first, ≤ 500 nM for the second. The second is the more potent here.

Going from `O=C(Cc1ccncc1)N1N=C(c2cc(F)ccc2F)SC12CCOc1ccccc12` (stereo not shown) [compound 485] to `N[C@H](C(=O)N1N=C(c2cc(F)ccc2F)SC12CCOc1ccccc12)C1CC1` (stereo partly shown) [compound 419], the EC50 rises from ≤ 500 nM to > 1000 nM.

For `N[C@H]1CCC[C@@H](C(=O)N2N=C(c3cc(F)ccc3F)SC23CCOc2ccccc23)C1` (stereo partly shown) [compound 479], the EC50 was > 500 nM.

Same assay, conditions: Homo sapiens, HCT-116, 16 h, Table 601; HCT116 cells, 16 hours with drug; read-out: EC50 (nM) Range

With `CN(C)C(=O)N1N=C(c2cc(F)ccc2F)SC12CCc1ccccc12` (stereo not shown) [compound 602] the EC50 was 500 to 1000 nM.

Same assay, conditions: Homo sapiens, HCT-116, 16 h, Table 701; HCT116 cells, 16 hours with drug; read-out: EC50 (nM) Range

For `COCCN1N=C(c2cc(F)ccc2F)SC12CCOc1ccccc12` (stereo not shown) [compound 704], the EC50 was > 1000 nM.

Same assay, conditions: Homo sapiens, HCT-116, 16 h, Table 801; HCT116 cells, 16 hours with drug; read-out: EC50 (nM) Range

Going from `CC(=O)N1N=C(c2cc(F)ccc2F)S[C@]12c1cccc(F)c1OC[C@@H]2CCN` [compound 810] to `CC(=O)N1N=C(c2cc(F)ccc2F)S[C@@]12c1cc(F)ccc1OC[C@@H]2CCN` [compound 804], the EC50 falls from > 1000 nM to ≤ 500 nM.

`CC(=O)N1N=C(c2cc(F)ccc2F)S[C@]12c1ccccc1OC[C@@H]2CCN` [compound 816] and `CC(=O)N1N=C(c2cc(F)ccc2F)S[C@]12c1cc(Cl)ccc1OC[C@@H]2CCN` [compound 812] cannot be ordered by EC50: > 1000 nM for the first, > 1000 nM for the second.

Same assay, conditions: Homo sapiens, HCT-116, 16 h, Table 1201 (Example 1201); HCT116 cells, 16 hours with drug; read-out: EC50 (nM) Range

`CCNCC[C@@H]1COc2ccccc2[C@@]12SC(c1cc(F)ccc1F)=NN2C(C)=O` [compound 1202] and `CC(=O)N1N=C(c2cc(F)ccc2F)S[C@@]12c1ccccc1OC[C@H]2CCNC(C)C` [compound 1203] cannot be ordered by EC50: ≤ 500 nM for the first, ≤ 500 nM for the second.

Same assay, conditions: Homo sapiens, HCT-116, 16 h, table of Example 901; HCT116 cells, 16 hours with drug; read-out: EC50 (nM) Range

`CC(=O)N1N=C(c2cc(F)ccc2F)S[C@@]12c1ccccc1OC[C@@H]2CC#N` [compound 902] and `CC(=O)N1N=C(c2cc(F)ccc2F)S[C@]12c1ccccc1OC[C@H]2CC#N` [compound 904] cannot be ordered by EC50: ≤ 500 nM for the first, 500 to 1000 nM for the second.

In the case of `CC(=O)N1N=C(c2cc(F)ccc2F)S[C@]12c1ccccc1C[C@@H]2CC#N` [compound 907], the EC50 is reported as ≤ 500 nM.

Same assay, conditions: Homo sapiens, HCT-116, 16 h, table of Example 1801 (headed Table 1201); HCT116 cells, 16 hours with drug; read-out: EC50 (nM) Range

`CC(=O)N1N=C(c2cc(Cl)ccc2F)S[C@@]12c1ccccc1OC[C@H]2CCN` [compound 1803] and `CC(=O)N1N=C(c2ccc(F)cc2F)S[C@@]12c1ccccc1OC[C@H]2CCN` (single isomer, unassigned) [compound 1801] cannot be ordered by EC50: ≤ 500 nM for the first, ≤ 500 nM for the second.

Compared with `CC(=O)N1N=C(c2ccccc2)S[C@@]12c1ccccc1OC[C@H]2CCN` [compound 1808], `CC(=O)N1N=C(c2cccc(F)c2)S[C@]12c1ccccc1OC[C@@H]2CCN` [compound 1811] is higher in EC50: ≤ 500 nM for the first, > 1000 nM for the second.

Same assay, conditions: Homo sapiens, HCT-116, 16 h, table of Example 1901; HCT116 cells, 16 hours with drug; read-out: EC50 (nM) Range

Compared with `COCCOCC(=O)N1N=C(c2cc(F)ccc2F)S[C@@]12c1cc(F)ccc1OC[C@H]2CCN` [compound 1906], `COCCOCC(=O)N1N=C(c2cc(F)ccc2F)S[C@]12c1ccccc1OC[C@@H]2CCN` [compound 1910] is higher in EC50: ≤ 500 nM for the first, > 1000 nM for the second. The first is the more potent here.

Compared with `CO[C@@H](C)C(=O)N1N=C(c2cc(F)ccc2F)S[C@@]12c1cc(F)ccc1OC[C@H]2CCN` [compound 1902], `CO[C@H](C)C(=O)N1N=C(c2cc(F)ccc2F)S[C@]12c1cc(F)ccc1OC[C@@H]2CCN` [compound 1903] is higher in EC50: ≤ 500 nM for the first, > 1000 nM for the second.

`CO[C@@H](C)C(=O)N1N=C(c2cc(F)ccc2F)S[C@]12c1cc(F)cc(F)c1OC[C@@H]2CCN` [compound 1908] was tested, and the EC50 was > 1000 nM.

Same assay, conditions: Homo sapiens, HCT-116, 16 h, table of Example 2001; HCT116 cells, 16 hours with drug; read-out: EC50 (nM) Range

For `CO[C@@H](C)C(=O)N1N=C(c2cc(F)ccc2F)S[C@]12c1ccccc1OC[C@@H]2CCN` [compound 2007], the EC50 was ≤ 500 nM.

Same assay, conditions: Homo sapiens, HCT-116, 16 h, table of Example 2101; HCT116 cells, 16 hours with drug; read-out: EC50 (nM) Range

First: CCOC(=O)N1N=C(c2cc(F)ccc2F)S[C@]12c1cc(F)ccc1OC[C@@H]2CCN [compound 2102]
Second: CCOC(=O)N1N=C(c2cc(F)ccc2F)S[C@@]12c1cc(F)ccc1OC[C@H]2CCN (single isomer, unassigned) [compound 2101]
The EC50 of the first is higher: > 1000 nM for the first, ≤ 500 nM for the second. The second is the more potent here.

Same assay, conditions: Homo sapiens, HCT-116, 16 h, table of Example 2201; HCT116 cells, 16 hours with drug; read-out: EC50 (nM) Range

With `NCC[C@@H]1COc2ccccc2[C@@]12SC(c1cc(F)ccc1F)=NN2C(=O)N1CCOCC1` [compound 2205] the EC50 was > 1000 nM.

Same assay, conditions: Homo sapiens, HCT-116, 16 h, table of Example 2301; HCT116 cells, 16 hours with drug; read-out: EC50 (nM) Range

For `Fc1ccc(F)c(C2=NN3CCC4COc5ccccc5C43S2)c1` (stereo not shown) [compound 2302], the EC50 was > 1000 nM.

Same assay, conditions: Homo sapiens, HCT-116, 16 h, table of Example 2401; HCT116 cells, 16 hours with drug; read-out: EC50 (nM) Range

For `CC(=O)N1N=C(c2cc(F)ccc2F)S[C@@]12CCNc1ccccc12` (single isomer, unassigned) [compound 2401], the EC50 was ≤ 500 nM.

Same assay, conditions: Homo sapiens, HCT-116, 16 h, table of Example 2501; HCT116 cells, 16 hours with drug; read-out: EC50 (nM) Range

In the case of `CC(=O)N1N=C(c2cc(F)ccc2F)S[C@@]12c1ccccc1NC[C@H]2CCO` [compound 2502], the EC50 is reported as ≤ 500 nM.

Same assay, conditions: Homo sapiens, HCT-116, 16 h, table of Example 2901; HCT116 cells, 16 hours with drug; read-out: EC50 (nM) Range

`CC(=O)N1N=C(c2cc(F)ccc2F)S[C@]12c1cc(F)ccc1NC[C@H]2CCN` [compound 2903] and `CC(=O)N1N=C(c2cc(F)ccc2F)S[C@@]12c1cc(F)ccc1NC[C@@H]2CCN` (single isomer, unassigned) [compound 2901] cannot be ordered by EC50: ≤ 500 nM for the first, ≤ 500 nM for the second.
